According to publication PMC6767403, “8‐Hydroxyquinolines are bactericidal against Mycobacterium tuberculosis” (Drug Development Research, 2019):
In brackets after ≈: the same amount, converted by molar mass. Read-outs that look alike come from different tables or passages of the source.

Key:
[1] = test system: M. tuberculosis H37Rv; assay: microbe, parasite or virus in culture; format: cell-based, Mycobacterium tuberculosis
[2] = Vero cell cytotoxicity, CellTiter-Glo, 2 days; format: cell-based; conditions: African green monkey, 2 days exposure
Experimental: Vero cells (CCL81) were cultured in high‐glucose Dulbecco's modified Eagle medium with GlutaMax (Invitrogen), 10% v/v fetal bovine serum, 50 units/mL penicillin, and 50 μg/mL streptomycin. Cells were exposed to compounds for 2 days and viability was determined using CellTiter‐Glo (Promega).

[3] = test system: HepG2 human liver cells; assay: HepG2 cytotoxicity, CellTiter-Glo, 72 hr; conditions: HepG2, 72 h, read-out: HepG2 IC50
[4] = test system: M. tuberculosis; assay: Kill kinetics against replicating M. tuberculosis (CFU); format: cell-based, Mycobacterium tuberculosis; conditions: replicating conditions; for bactericidal activity (in words): 7H9-OADC-Tw medium, 1× to 10× MIC
[5] = test system: HepG2 human liver cells
[6] = Mycobacterium tuberculosis, H37RV, 120 h, […], mean ± SD (n in parentheses), read-out: MIC

Row | SMILES | IC50 [3] | MIC [1, 6] | IC50 at 2 days ([2]; Vero cells (CCL81)) | anti-tubercular activity (in words) [1] | also measured
1 | Oc1cccc2cccnc12 [Compound 1, 8‐hydroxyquinoline] | 7.6 ± 0.68 µM |  |  |  | MIC [1]: 3.6 ± 0.20 (2) μM; MIC ([1]; Mycobacterium tuberculosis, H37RV, 120 h): 3.6 µM (≈ 0.523 µg/mL); IC50 at 2 days ([2]; Vero cells): 1.4 µM
2 | Cc1ccc(O)c2ncccc12 [Compound 2] | 6.5 ± 1.7 µM | 3.1 ± 1.1 µM (≈ 0.493 µg/mL) | 1.4 µM |  | 
3 | Oc1ccc(Br)c2cccnc12 [Compound 3] | 6.9 ± 0.59 µM | 2.9 ± 0.4 µM (≈ 0.65 µg/mL) | 1.8 µM |  | 
4 | Oc1ccc(Cl)c2cccnc12 [Compound 4] | 7.6 ± 1.5 µM | 3 ± 1 µM (≈ 0.539 µg/mL) | 2.4 µM |  | bactericidal activity (in words) [4]: bactericidal; logs of bacteria killed ([4]; 12 μM (2.5× MIC) and higher, within 14 days): ≥ 3 logs
5 | Oc1c(Cl)cc(Cl)c2cccnc12 [Compound 5] | 7.6 ± 1.2 µM | 8.4 µM (≈ 1.8 µg/mL) | 1.3 µM |  | MIC ([1]; […], mean ± SD (n in parentheses)): 8.4 ± 4.5 (6) μM
6 | O=[N+]([O-])c1ccc(O)c2ncccc12 [Compound 6] | 7.7 ± 1.8 µM | 4.8 ± 3.3 µM (≈ 0.913 µg/mL) | 2.9 µM |  | 
7 | Oc1ccc(COC2CCCCC2)c2cccnc12 [Compound 7] | 4.9 ± 1.9 µM | 3.2 ± 0.85 µM (≈ 0.823 µg/mL) | 6.2 µM |  | 
8 | Oc1ccc(CNc2cccc(Br)c2)c2cccnc12 [Compound 8] | 12 ± 0.5 µM | > 20 µM | 7.5 µM | abrogated the anti‐tubercular activity | 
9 | Oc1ccc(CN2CCN(c3ccc(F)cc3)CC2)c2cccnc12 [Compound 9] | 9.8 ± 2.2 µM | > 20 µM | 5.8 µM | abrogated the anti‐tubercular activity | 
10 | [O-][n+]1cccc2cccc(O)c21 [Compound 10] | < 88 µM | > 20 µM | > 20 µM | loss of activity | cytotoxicity against HepG2 cells (in words) [5]: significant reduction of cytotoxicity
11 | Cc1ccc2cccc(O)c2n1 [Compound 11] | 28 ± 9 µM | > 20 µM |  | not tolerated | IC50 at 2 days ([2]; Vero cells): 12 µM
12 | Nc1ccc2cccc(O)c2n1 [Compound 12] | 12 ± 0.5 µM | 4.6 ± 1.7 µM (≈ 0.737 µg/mL) |  | retained measurable anti‐tubercular activity | IC50 at 2 days ([2]; Vero cells): 3.3 µM
13 | CNc1ccc2cccc(O)c2n1 [Compound 13] | 22 ± 2.8 µM | 6.4 ± 0.35 µM (≈ 1.11 µg/mL) | 8.2 µM | retained measurable anti‐tubercular activity | 
14 | CN(C)c1ccc2cccc(O)c2n1 [Compound 14] | > 100 µM | > 20 µM | > 50 µM | loss of activity | 
15 | Oc1cccc2ccc(N3CCCCC3)nc12 [Compound 15] | > 100 µM | > 20 µM | > 50 µM | loss of activity | 
16 | Oc1cccc2ccc(Nc3ccccc3)nc12 [Compound 16] | 3.8 ± 0.45 µM | > 20 µM | 0.94 µM | loss of activity | 
17 | CC(=O)Nc1ccc2cccc(O)c2n1 [Compound 17] | 9 ± 1 µM | > 20 µM | 4.9 µM | not tolerated | 
18 | Cc1cc(C)n(-c2ccc3cccc(O)c3n2)n1 [Compound 19] | 12 ± 0.5 µM | > 20 µM | 19 µM |  | 
19 | COc1cccc(/C=C/c2ccc3cccc(O)c3n2)c1 [Compound 21] | 10 ± 1 µM | 8.7 ± 0.2 µM (≈ 2.41 µg/mL) | 2.9 µM |  | 
20 | COc1ccccc1/C=C/c1ccc2cccc(O)c2n1 [Compound 22] | 12 ± 2 µM | 13 ± 9.1 µM (≈ 3.61 µg/mL) | 6.2 µM |  | 
21 | Oc1cccc2ccc(/C=C/c3ccc4c(c3)OCO4)nc12 [Compound 23] | 9.1 ± 3 µM | 15 ± 5 µM (≈ 4.37 µg/mL) | 6 µM |  | 
22 | Oc1cccc2ccc(/C=C/c3cccc(F)c3)nc12 [Compound 24] | 8 ± 0.6 µM | 13 ± 6.3 µM (≈ 3.45 µg/mL) | 7.2 µM |  | bactericidal activity (in words) [4]: bactericidal; log kill (sterilized the culture) ([4]; 27 μM (10× MIC), within 14 days): > 4 log; logs of bacteria killed ([4]; concentrations above 14 μM (5× MIC)): ≥ 2 logs
23 | Oc1cccc2ccc(/C=C/c3ccccc3Cl)nc12 [Compound 25] | 12 ± 1 µM | 5.8 ± 2.2 µM (≈ 1.63 µg/mL) | 9 µM |  | 
24 | OCc1ccccc1CN1CCN(Cc2ccc3cccc(O)c3n2)CC1 [Compound 26] | 14 ± 0.5 µM | > 20 µM | 11 µM | not tolerated | 
